# Reference: patent publication US20230312723A1, “METHODS AND COMPOSITIONS FOR NON-SMALL CELL LUNG CANCER IMMUNOTHERAPY” (Genentech, Inc., priority 2020, published 2023)
# Tested on: Stage IV non-squamous or squamous NSCLC
# Test: Phase III randomized open-label study of atezolizumab vs platinum-based chemotherapy: efficacy (OS, PFS, ORR, DOR per RECIST v1.1), incl. PD-L1 and bTMB subgroups
# Type: in vivo, human
# Procedure: As described below, the primary endpoint of this study was improvement in overall survival (OS). Secondary endpoints included progression-free survival (PFS), overall response rate (ORR), and duration of response (DOR), among others.
# FIG. 1 illustrates the study design.
# At screening, tumor specimens from each potentially eligible patient were tested for PD-L1 expression by a central laboratory using an IHC assay. Only patients who are PD-L1 selected (TC1/2/3 or 101/2/3; corresponding to 1% PD-L1 expressing TCs and 1% of tumor area occupied by PD-L1 expressing ICs) were enrolled. […] Randomization was stratified by sex (male vs. female), ECOG Performance Status (0 vs. 1), histology (non-squamous vs. squamous), and PD-L1 tumor expression by IHC (TC1/2/3 and any IC vs. TC0 and 101/2/3).
# Patients randomized to receive pemetrexed in combination with either cisplatin or carboplatin (non-squamous disease) received chemotherapy intravenously on Day 1 of each 21-day cycle for four or six cycles, followed by maintenance therapy with pemetrexed. Patients randomized to receive gemcitabine in combination with either cisplatin or carboplatin (squamous disease) received cisplatin or carboplatin intravenously on Day 1 and gemcitabine intravenously on Days 1 and 8 of each 21-day cycle for four or six cycles, followed by best supportive care. The intended number of cycles planned for the platinum-based induction chemotherapy (i.e., four or six cycles) was specified by the investigator prior to study randomization. Treatment will continue until disease progression, unacceptable toxicity, or death.
# All patients underwent tumor assessment at baseline and every 6 weeks (±7 days) for 48 weeks following Cycle 1, Day 1 regardless of treatment delays. […] In the absence of radiographic disease progression per RECIST v1.1, tumor assessments continued regardless of whether patients start a new anti-cancer therapy.
# The primary efficacy outcome measure for this study is OS, defined as the time from randomization to death from any cause.
# The secondary efficacy outcome measures for this study are as follows: • PFS, defined as the time from randomization to the first occurrence of disease progression, as determined by the investigator with use of RECIST v1.1, or death from any cause, whichever occurs first • Objective response (PR plus CR) as determined by the investigator according to RECIST v1.1 • DOR, defined as the time from the first occurrence of a documented objective response to the time of disease progression, as determined by the investigator with use of RECIST v1.1, or death from any cause, whichever occurs first • OS at 1- and 2-year landmark timepoints • TTD and change from baseline (i.e., improvement or deterioration based on presenting symptomatology) in each of the patient-reported lung cancer symptoms (cough, dyspnea, or chest pain) with use of the SILO scale • TTD in patient-reported lung cancer symptoms, defined as time from randomization to deterioration (10-point change) in any of the following symptom subscales (cough, dyspnea [multi-item scale], and chest pain), whichever occurs first, as measured by the EORTC QLQ-LC13 • OS and investigator-assessed PFS according to RECIST v1.1 in the PD-L1 (defined with SP263 IHC assay) and bTMB subpopulations. The bTMB assay (Foundation Medicine, Cambridge, MA) identifies single nucleotide variants at ≥0.5% across 394 genes and estimates tumor fraction by maximum somatic allele frequency, filters out germline events and counts non-driver somatic mutations to generate a bTMB score. The bTMB score cutoffs evaluated were 0, 6 and […] of 16 (16 mutations/1.1 Mb) equates to approximately 14.5 mutations/Mb.
# [1] = TC1/2/3 or IC1/2/3-WT population
# [2] = bTMB 6 cutoff, bTMB BEP-WT population
substance,measurement,setting,value
atezolizumab,OS vs chemotherapy (in words),PD-L1-positive BEP subgroups,OS improvement favoring atezolizumab vs chemotherapy
same,Median OS,[1],17.5 months
same,"OS HR, stratified (atezo vs chemo)",[1],0.832
same,Median OS,TC2/3 or IC2/3-WT population,18.2 months
same,"OS HR, stratified (atezo vs chemo)",TC2/3 or IC2/3-WT population,0.717
same,Confirmed ORR,TC3 or IC3-WT population,"38.3% (29.08,"
same,"Overall Survival, Median",TC3 or IC3-WT population,20.2 months
same,"Overall Survival, Stratified HR (atezo vs chemo)",TC3 or IC3-WT population,0.595
same,"Overall Survival, improvement of median vs chemo",TC3 or IC3-WT population,7.1 months
same,"Progression-Free Survival, Median",TC3 or IC3-WT population,8.1 months
same,"Progression-Free Survival, Stratified HR (atezo vs chemo)",TC3 or IC3-WT population,0.630
same,"Progression-Free Survival, improvement of median vs chemo",TC3 or IC3-WT population,3.1 months
same,PFS vs chemotherapy (in words),across PD-L1 BEP subgroups,PFS improvement with atezolizumab was observed
same,OS unstratified HR (atezolizumab vs chemotherapy),[2],0.75
same,PFS HR (atezolizumab vs chemotherapy),[2],0.55
